The test system of this assay is Plasmodium berghei. As to the kind of experiment: Luciferase/luciferin-expressing antifolate-resistant parasites were used to infect a culture of HepG2 cells that were pre-incubated with compounds. Infected hepatocytes emit light due to the luciferase reaction. Assay results are presented as the percent inhibition of light emission compared to control. […]. The following applies: sporozoite; for IC90: read-out: LUCIFERASE INFECTION ASSAY - IC90. It is filed as functional.

Where [1] appears, read: read-out: LUCIFERASE INFECTION ASSAY - IC50.

The structures appear in SMILES notation. A value given as a limit tells only on which side of the number the result lay.

Results on 36 molecules are retold here after ChEMBL document CHEMBL4483862, “Open-source discovery of chemical leads for next-generation chemoprotective antimalarials” (2018).

In the case of `Cc1cc(C)c(CNC(=O)N(C)Cc2cn(-c3ccccc3)nc2-c2ccccc2)c(=O)[nH]1`, the IC90 (commonly the point of the concentration-response curve where the effect stands at 90%) was greater than 10 µM. The IC50 (usually the midpoint of a concentration-inhibition curve) under setting [1] was greater than 10 µM. Take `O=C(OCCSc1ccc([N+](=O)[O-])c2nonc12)c1ccccc1`: the IC90 is greater than 9.56 µM. In addition, the concentration for half-maximal inhibition (IC50) (FFLUC_HILL_SLOPE 1.36, FFLUC_R_SQUARED 0.568, HEPG2TOX_HILL_SLOPE 2.89, HEPG2TOX_R_SQUARED 0.849, PBLUC_HILL_SLOPE 0.85, PBLUC_R_SQUARED 0.48, read-out: LUCIFERASE INFECTION ASSAY - IC50) came out at 5.19 µM. Regarding `COC(=O)c1scc(S(=O)(=O)Cc2ccco2)c1NN=C(C#N)C#N`, the IC90 was greater than 8.72 µM. For the same molecule, the concentration for half-maximal inhibition (IC50) under setting [1] is greater than 8.72 µM. On to `CCOC(=O)Nc1ccc2c(Cn3cnc4sc5c(c4c3=O)CCC5)cc(=O)oc2c1`, for which the IC90 was greater than 10 µM. Further, the IC50 (FFLUC_HILL_SLOPE 14, FFLUC_R_SQUARED 0.282, read-out: LUCIFERASE INFECTION ASSAY - IC50) is greater than 10 µM.

As for `N#Cc1ccc(-c2cnc3cnc(/C=C/c4ccccc4)cn23)cc1`, the IC90 stood at 1.49 µM. The IC50 (PBLUC_HILL_SLOPE 4.44, PBLUC_R_SQUARED 0.805, read-out: LUCIFERASE INFECTION ASSAY - IC50) was found to be 0.909 µM. `CC(=O)NC(Cc1c[nH]c2ccccc12)C(=O)NNC(=O)c1ccccc1O` (stereo unspecified): the IC90 is greater than 10 µM. The half-inhibitory concentration (IC50) under setting [1] is greater than 10 µM. Take `C=C(C)C[n+]1cn(C)c(-c2ccccc2)c1-c1ccccc1`: the IC90 was greater than 10 µM. For the same molecule, where the note is “HEPG2TOX_HILL_SLOPE 0.508, HEPG2TOX_R_SQUARED 0.671, PBLUC_HILL_SLOPE 5.71, PBLUC_R_SQUARED 0.631, read-out: LUCIFERASE INFECTION ASSAY - IC50”, the IC50 was 7.55 µM. On to `COc1ccc(CCN(C)c2ccc(S(=O)(=O)N(C(C)C)C(C)C)cn2)cc1OC`, for which the IC90 was greater than 10 µM. Further, the IC50 (PBLUC_HILL_SLOPE 2.91, PBLUC_R_SQUARED 0.109, read-out: LUCIFERASE INFECTION ASSAY - IC50) worked out at 5.86 µM. For the molecule `Cc1nc(Sc2nnnn2-c2ccccc2)c2c3c(sc2n1)CCC3`, the IC90 was greater than 10 µM. Besides, the IC50 (HEPG2TOX_HILL_SLOPE 9.14, HEPG2TOX_R_SQUARED 0.239, read-out: LUCIFERASE INFECTION ASSAY - IC50) is greater than 10 µM. Consider `CC(C)(C)c1csc(-c2ccc(/C=N/OC(=O)Nc3ccc(Cl)cc3)cc2)n1`, for which the IC90 is greater than 7.97 µM. Further, the concentration for half-maximal inhibition (IC50) under setting [1] was greater than 7.97 µM. Consider `COc1cccc(-c2nc3ccc(NC(=O)Nc4ccc(OC(F)(F)F)cc4)cn3n2)c1`, for which the IC90 was greater than 10 µM. Moreover, the IC50 (FFLUC_HILL_SLOPE 45.6, FFLUC_R_SQUARED 0.742, read-out: LUCIFERASE INFECTION ASSAY - IC50) was greater than 10 µM. With `COc1ccccc1N(C)S(=O)(=O)c1ccc(C)c(C(=O)Nc2nc3ccccc3s2)c1`, the IC90 turned out to be 8.14 µM. Moreover, for the setting “PBLUC_HILL_SLOPE 17.5, PBLUC_R_SQUARED 0.446, read-out: LUCIFERASE INFECTION ASSAY - IC50”, the 50% inhibitory concentration (IC50) was 7.18 µM. Regarding `Cc1cc(N2CCN(C(=O)c3cc(-c4ccccc4)nc4c3cnn4C(C)C)CC2)nc(C(C)C)n1`, the IC90 is greater than 10 µM. Further, the IC50 (FFLUC_HILL_SLOPE 16.4, FFLUC_R_SQUARED 0.735, read-out: LUCIFERASE INFECTION ASSAY - IC50) was greater than 10 µM. In the case of `N#Cc1cnc2c(Cl)cc(F)cc2c1Cl`, the IC90 was greater than 10 µM. Under setting [1], the IC50 is greater than 10 µM. Consider `OCCNCCNCc1c(OCc2ccccc2Cl)ccc2ccccc12`, for which the IC90 is greater than 8.57 µM. For the same molecule, where the note is “PBLUC_HILL_SLOPE 12.5, PBLUC_R_SQUARED 0.654, read-out: LUCIFERASE INFECTION ASSAY - IC50”, the IC50 came to 7.4 µM. As to `Cc1n(C)c2c([n+]1C)C(=O)c1ccccc1C2=O`, the IC90 is 0.128 µM. Also, where the note is “HEPG2TOX_HILL_SLOPE 0.401, HEPG2TOX_R_SQUARED 0.884, PBLUC_HILL_SLOPE 1.09, PBLUC_R_SQUARED 0.944, read-out: LUCIFERASE INFECTION ASSAY - IC50”, the IC50 worked out at 0.017 µM.

Turning to `O=[N+]([O-])c1cc(Cl)cc(/C=N/Nc2cc(C(F)(F)F)ccc2Cl)c1O`, the IC90 is greater than 10 µM. The IC50 (FFLUC_HILL_SLOPE 3.01, FFLUC_R_SQUARED 0.379, HEPG2TOX_HILL_SLOPE 2.46, HEPG2TOX_R_SQUARED 0.824, read-out: LUCIFERASE INFECTION ASSAY - IC50) was greater than 10 µM. As to `Cc1onc(-c2c(F)cccc2Cl)c1C(=O)ON=C1C2CC3CC(C2)CC1C3`, the IC90 was 4.84 µM. The IC50 (PBLUC_HILL_SLOPE 4.6, PBLUC_R_SQUARED 0.401, read-out: LUCIFERASE INFECTION ASSAY - IC50) is 3 µM. For `CNC(=O)c1cccc(-c2cc(C3(CNc4ccccc4F)CC3)ccn2)c1`, the IC90 is greater than 10 µM. The IC50 under setting [1] is greater than 10 µM.

For `Cc1cc(C(=O)C(C)OC(=O)CCc2nc(=O)c3ccccc3[nH]2)c(C)n1-c1ccc(Cl)cc1` (stereo unspecified), the IC90 is greater than 10 µM. The IC50 (HEPG2TOX_HILL_SLOPE 0.024, HEPG2TOX_R_SQUARED 0.0218, read-out: LUCIFERASE INFECTION ASSAY - IC50) was greater than 10 µM. Take `COC(=O)c1cc(N/N=C2\C=CC(=O)c3ncccc32)cc(C(=O)OC)c1`: the IC90 amounted to 3.38 µM. Also, for the setting “FFLUC_HILL_SLOPE 11, FFLUC_R_SQUARED 0.42, HEPG2TOX_HILL_SLOPE 0.866, HEPG2TOX_R_SQUARED 0.908, PBLUC_HILL_SLOPE 2.75, PBLUC_R_SQUARED 0.794, read-out: LUCIFERASE INFECTION ASSAY - IC50”, the IC50 stood at 1.52 µM. Take `O=C(NC1CC1)c1ccc(-c2cnc3cnc(-c4ccccc4Cl)cn23)cc1`: the IC90 was greater than 8.49 µM. Also, the IC50 (HEPG2TOX_HILL_SLOPE 2.06, HEPG2TOX_R_SQUARED 0.921, PBLUC_HILL_SLOPE 2.15, PBLUC_R_SQUARED 0.563, read-out: LUCIFERASE INFECTION ASSAY - IC50) amounted to 4.01 µM.

As for `CCOc1cc(/C=C/c2nc3cc(Cl)ccc3o2)ccc1OCC(=O)N(C(C)C)C(C)C`, the IC90 was greater than 10 µM. For the setting “PBLUC_HILL_SLOPE 2.25, PBLUC_R_SQUARED 0.0279, read-out: LUCIFERASE INFECTION ASSAY - IC50”, the IC50 is greater than 10 µM. As for `NS(=O)(=O)c1ccc(CCNc2cc(-c3ccccc3)c3cc4c(cc3n2)OCCO4)cc1`, the IC90 amounted to 6.08 µM. Moreover, under setting [1], the IC50 came out at 3.43 µM.

For the molecule `CCOc1ccc(Nc2nc(-c3c(C)nc4cc(C)ccn34)cs2)cc1`, the IC90 amounted to 6.99 µM.

Take `CN(CCO)c1ccc(C(=O)c2ccc(N(C)CCO)cc2)cc1`: the IC90 is 9.22 µM. Besides, the IC50 (HEPG2TOX_HILL_SLOPE 1.17, HEPG2TOX_R_SQUARED 0.868, PBLUC_HILL_SLOPE 1.55, PBLUC_R_SQUARED 0.285, read-out: LUCIFERASE INFECTION ASSAY - IC50) stood at 2.24 µM.

In the case of `COc1cc(C#N)ccc1Oc1ccnc2cc(Cl)ccc12`, the concentration for an effect of 90% (IC90) is greater than 10 µM. Further, the IC50 (HEPG2TOX_HILL_SLOPE 2.16, HEPG2TOX_R_SQUARED 0.625, PBLUC_HILL_SLOPE 9.16, PBLUC_R_SQUARED 0.449, read-out: LUCIFERASE INFECTION ASSAY - IC50) is 8.55 µM. `CCn1c(CNC(=O)C2CCN(c3ccc(C#N)cn3)CC2)nc2ccccc21`: the IC90 was greater than 10 µM. For the same molecule, the IC50 (PBLUC_HILL_SLOPE 0.433, PBLUC_R_SQUARED 0.506, read-out: LUCIFERASE INFECTION ASSAY - IC50) stood at 4.94 µM. For `CC(=C\c1ccc(Cl)cc1)/C(C)=N/O` [AP18 5], the IC90 amounted to 5.3 µM. Besides, under “HEPG2TOX_HILL_SLOPE 1.12, HEPG2TOX_R_SQUARED 0.98, PBLUC_HILL_SLOPE 2.33, PBLUC_R_SQUARED 0.772, read-out: LUCIFERASE INFECTION ASSAY - IC50”, the half-maximal inhibitory concentration (IC50) turned out to be 2.07 µM. Take `S=C(Nc1ccc(Cl)c(Cl)c1)N1c2ccccc2-n2cccc2C1c1cccnc1` (stereo unspecified): the IC90 amounted to 6.49 µM. For the same molecule, the IC50 (PBLUC_HILL_SLOPE 3.68, PBLUC_R_SQUARED 0.381, read-out: LUCIFERASE INFECTION ASSAY - IC50) is 3.57 µM. Turning to `COc1ccc(OS(=O)(=O)c2sc(Br)cc2Br)cc1`, the IC90 turned out to be 3.26 µM. Further, for the setting “HEPG2TOX_HILL_SLOPE 3.4, HEPG2TOX_R_SQUARED 0.9, PBLUC_HILL_SLOPE 10.6, PBLUC_R_SQUARED 0.653, read-out: LUCIFERASE INFECTION ASSAY - IC50”, the half-inhibitory concentration (IC50) was determined as 2.64 µM. For `CN(C)C(=O)c1ccc(-c2cnc3cnc(-c4ccccc4Oc4ccccc4)cn23)cc1`, the IC90 came out at 3.65 µM. Under “PBLUC_HILL_SLOPE 8.03, PBLUC_R_SQUARED 0.291, read-out: LUCIFERASE INFECTION ASSAY - IC50”, the IC50 came out at 2.77 µM. Regarding `CCn1nnnc1Sc1nc(C)nc2sc3c(c12)CCC3`, the IC90 was determined as 3.73 µM. In addition, the IC50 (HEPG2TOX_HILL_SLOPE 68.5, HEPG2TOX_R_SQUARED 0.626, PBLUC_HILL_SLOPE 11, PBLUC_R_SQUARED 0.226, read-out: LUCIFERASE INFECTION ASSAY - IC50) came out at 3.05 µM. Turning to `CC(C1CC2CCC1C2)n1c(SCc2nnc(-c3ccccc3)o2)nnc1-c1ccco1` (stereo unspecified), the IC90 is greater than 10 µM. In addition, the IC50 (FFLUC_HILL_SLOPE 12, FFLUC_R_SQUARED 0.233, read-out: LUCIFERASE INFECTION ASSAY - IC50) was greater than 10 µM. In the case of `O=c1c2c3c(sc2nc(SCc2nc4ccc(Cl)cc4n2CCO)n1CC1CCCO1)CCC3` (stereo unspecified), the 90% effect concentration (IC90) is greater than 10 µM. The half-maximal inhibitory concentration (IC50) (FFLUC_HILL_SLOPE 13.3, FFLUC_R_SQUARED 0.41, read-out: LUCIFERASE INFECTION ASSAY - IC50) is greater than 10 µM. `O=[N+]([O-])c1ccc(NN=C(Cc2ccccc2)Cc2ccccc2)c(S(=O)(=O)Nc2ccccc2Cl)c1`: the IC90 is greater than 10 µM. Further, the IC50 (HEPG2TOX_HILL_SLOPE 2.02, HEPG2TOX_R_SQUARED 0.983, PBLUC_HILL_SLOPE 2.86, PBLUC_R_SQUARED 0.742, read-out: LUCIFERASE INFECTION ASSAY - IC50) worked out at 6.11 µM.
